target: T1, Dual specificity protein phosphatase 6 (Rattus norvegicus, UniProt Q64346); test: inhibition of rat DUSP6 enzyme activity – biochemical, in vitro, primary screen (AID 425)
T1 sequence (Q64346 whole entry): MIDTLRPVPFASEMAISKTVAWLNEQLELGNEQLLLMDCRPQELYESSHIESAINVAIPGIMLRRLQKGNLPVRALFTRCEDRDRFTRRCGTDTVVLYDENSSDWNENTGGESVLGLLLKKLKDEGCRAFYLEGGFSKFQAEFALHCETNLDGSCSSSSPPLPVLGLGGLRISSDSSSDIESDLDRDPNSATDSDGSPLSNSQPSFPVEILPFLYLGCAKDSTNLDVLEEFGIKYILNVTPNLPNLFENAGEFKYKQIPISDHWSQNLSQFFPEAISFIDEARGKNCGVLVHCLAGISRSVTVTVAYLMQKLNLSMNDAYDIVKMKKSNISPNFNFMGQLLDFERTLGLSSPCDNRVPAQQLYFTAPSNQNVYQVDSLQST

Row | Compound | IC50 [µM]
1 | Cc1ccc(NC(=O)CN2C(=O)C(=NNC(=O)c3cc([N+](=O)[O-])ccc3O)c3ccccc32)cc1 | 31
2 | CCOc1cc(CN=Nc2nc(O)c(CC(=O)O)s2)ccc1OCc1ccc(Cl)cc1Cl [2-[2-[(N''E)-N''-[4-(2,4-dichlorobenzyl)oxy-3-ethoxy-benzylidene]hydrazino]-4-keto-2-thiazolin-5-yl]acetic acid] | 25.6
3 | O=NCc1cccn1-c1cccc(C(=O)O)c1 [3-[2-(hydroximinomethyl)pyrrol-1-yl]benzoic acid] | 10
4 | CCN(CC)CCCN1C(=O)C(=O)C(C(=O)c2ccccc2)C1c1ccccn1 (stereo unspecified) [(4E)-1-[3-(diethylamino)propyl]-4-[hydroxy(phenyl)methylidene]-5-(2-pyridinyl)pyrrolidine-2,3-dione] | 100

Second part, the compound after the results:

Row | IC50 [µM] | Compound
5 | 24 | Cc1cc(=O)oc2cc(OCC(=O)N/N=C/C3C=C([N+](=O)[O-])C=CC3=O)ccc12 (stereo unspecified) [MLS000588734]
6 | 116 | COC1=CC=CC(/C=N/NC(=O)c2cc3cc([N+](=O)[O-])ccc3s2)C1=O (stereo unspecified) [SMR000237814]
